Laboratory results: PubChem BioAssay AID1963973 (Molecular Pharmacology Branch, DTP, NCI, 2024)
pIC50: −log10 of the molar value. Values belong to the molecule of their own block, whether it stands above or below them.

Tested on: 883617-216-R-J1-PDC tumor spheroids, viability
Test: Anticancer human tumor 883617-216-R-J1-PDC patient-derived bladder carcinoma cell line growth inhibition [PI3K]
Conditions: spheroids with HUVEC and MSC; for pIC50: curve of first compound; for viability, T/C: stronger effect = lower value
Outline: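 Targeted small molecules plus PI3K inhibitors, half-log dose series from Cmax (default top 10 microM), were applied to heterotypic spheroids of cancer cells with HUVEC and MSCs. Viability indicated growth inhibition.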

[1] = second compound 0.00316 µM, first compound 0.0316 µM
[2] = second compound 0.00316 µM, first compound 0.1 µM
[3] = second compound 0.01 µM, first compound 0.0316 µM
[4] = second compound 0.01 µM, first compound 0.1 µM
[5] = second compound 0.0316 µM, first compound 0.0316 µM
[6] = second compound 0.0316 µM, first compound 0.1 µM
[7] = second compound 0.0316 µM, first compound 0.316 µM
[8] = second compound 0.0316 µM, first compound 1 µM
[9] = second compound 0.0316 µM, first compound 3.16 µM
[10] = second compound 0.0316 µM, first compound 10 µM
[11] = second compound 0.1 µM, first compound 0.0316 µM
[12] = second compound 0.1 µM, first compound 0.1 µM
[13] = second compound 0.1 µM, first compound 0.316 µM
[14] = second compound 0.1 µM, first compound 1 µM
[15] = second compound 0.1 µM, first compound 3.16 µM
[16] = second compound 0.1 µM, first compound 10 µM
[17] = second compound 0.316 µM, first compound 0.0316 µM
[18] = second compound 0.316 µM, first compound 0.1 µM
[19] = second compound 0.316 µM, first compound 0.316 µM
[20] = second compound 0.316 µM, first compound 1 µM
[21] = second compound 0.316 µM, first compound 3.16 µM
[22] = second compound 0.316 µM, first compound 10 µM
[23] = second compound 1 µM, first compound 0.0316 µM
[24] = second compound 1 µM, first compound 0.1 µM
[25] = second compound 1 µM, first compound 0.316 µM
[26] = second compound 1 µM, first compound 1 µM
[27] = second compound 1 µM, first compound 3.16 µM
[28] = second compound 1 µM, first compound 10 µM
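Also: spheroids exposed to agents for 7 days before the viability read.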

- pIC50 (second compound 0.00316 µM): < 5.00
- pIC50 (second compound 0.01 µM): < 5.00
- pIC50 (second compound 0.0316 µM): 5.19
- pIC50 (second compound 0.1 µM): > 7.50
- pIC50 (second compound 0.316 µM): > 7.50
- pIC50 (second compound 1 µM): > 7.50
Structure (SMILES): C#Cc1c(F)ccc2cc(O)cc(-c3ncc4c(N5CC6CCC(C5)N6)nc(OCC56CCCN5CC(F)C6)nc4c3F)c12 (stereo unspecified) + CC(Nc1ccc2c(c1)OCCn1cc(N3C(=O)OCC3C(F)F)nc1-2)C(N)=O
- viability, T/C [1]: 85.3%
- viability, T/C [2]: 89.7%
- viability, T/C (second compound 0.00316 µM, first compound 0.316 µM): 84.8%
- viability, T/C (second compound 0.00316 µM, first compound 1 µM): 91.2%
- viability, T/C (second compound 0.00316 µM, first compound 3.16 µM): 79.6%
- viability, T/C (second compound 0.00316 µM, first compound 10 µM): 54.8%
- viability, T/C [3]: 87.9%
- viability, T/C [4]: 88.4%
- viability, T/C (second compound 0.01 µM, first compound 0.316 µM): 88.3%
- viability, T/C (second compound 0.01 µM, first compound 1 µM): 85%
- viability, T/C (second compound 0.01 µM, first compound 3.16 µM): 74.3%
- viability, T/C (second compound 0.01 µM, first compound 10 µM): 53.2%
- viability, T/C [5]: 79.9%
- viability, T/C [6]: 75.3%
- viability, T/C [7]: 64.9%
- viability, T/C [8]: 88.5%
- viability, T/C [9]: 62.4%
- viability, T/C [10]: 40.2%
- viability, T/C [11]: 41.1%
- viability, T/C [12]: 39.7%
- viability, T/C [13]: 42.7%
- viability, T/C [14]: 39.6%
- viability, T/C [15]: 31%
- viability, T/C [16]: 21%
- viability, T/C [17]: 27.6%
- viability, T/C [18]: 21.4%
- viability, T/C [19]: 21.4%
- viability, T/C [20]: 24.6%
- viability, T/C [21]: 16.7%
- viability, T/C [22]: 16.8%
- viability, T/C [23]: 13.4%
- viability, T/C [24]: 16.9%
- viability, T/C [25]: 17.1%
- viability, T/C [26]: 12.8%
- viability, T/C [27]: 14.2%
- viability, T/C [28]: 8%

- pIC50 (second compound 0.00316 µM): 7.13
- pIC50 (second compound 0.01 µM): 7.27
- pIC50 (second compound 0.0316 µM): 7.44
- pIC50 (second compound 0.1 µM): 9.29
- pIC50 (second compound 0.316 µM): > 9.50
- pIC50 (second compound 1 µM): > 9.50
Structure (SMILES): CC(=O)c1c(C)c2cnc(Nc3ccc(N4CCNCC4)cn3)nc2n(C2CCCC2)c1=O + CC(Nc1ccc2c(c1)OCCn1cc(N3C(=O)OCC3C(F)F)nc1-2)C(N)=O
- viability, T/C (second compound 0.00316 µM, first compound 0.000316 µM): 99.1%
- viability, T/C (second compound 0.00316 µM, first compound 0.001 µM): 97.3%
- viability, T/C (second compound 0.00316 µM, first compound 0.00316 µM): 86.7%
- viability, T/C (second compound 0.00316 µM, first compound 0.01 µM): 84.1%
- viability, T/C [1]: 67%
- viability, T/C [2]: 43.6%
- viability, T/C (second compound 0.01 µM, first compound 0.000316 µM): 78.1%
- viability, T/C (second compound 0.01 µM, first compound 0.001 µM): 85.7%
- viability, T/C (second compound 0.01 µM, first compound 0.00316 µM): 82%
- viability, T/C (second compound 0.01 µM, first compound 0.01 µM): 78.7%
- viability, T/C [3]: 55.9%
- viability, T/C [4]: 43.4%
- viability, T/C (second compound 0.0316 µM, first compound 0.000316 µM): 74.2%
- viability, T/C (second compound 0.0316 µM, first compound 0.001 µM): 78.9%
- viability, T/C (second compound 0.0316 µM, first compound 0.00316 µM): 67.5%
- viability, T/C (second compound 0.0316 µM, first compound 0.01 µM): 69.8%
- viability, T/C [5]: 51.2%
- viability, T/C [6]: 34.9%
- viability, T/C (second compound 0.1 µM, first compound 0.000316 µM): 52%
- viability, T/C (second compound 0.1 µM, first compound 0.001 µM): 47.8%
- viability, T/C (second compound 0.1 µM, first compound 0.00316 µM): 42.8%
- viability, T/C (second compound 0.1 µM, first compound 0.01 µM): 42.6%
- viability, T/C [11]: 32.2%
- viability, T/C [12]: 26.1%
- viability, T/C (second compound 0.316 µM, first compound 0.000316 µM): 33.9%
- viability, T/C (second compound 0.316 µM, first compound 0.001 µM): 26.1%
- viability, T/C (second compound 0.316 µM, first compound 0.00316 µM): 26.7%
- viability, T/C (second compound 0.316 µM, first compound 0.01 µM): 26.3%
- viability, T/C [17]: 18.3%
- viability, T/C [18]: 15.8%
- viability, T/C (second compound 1 µM, first compound 0.000316 µM): 18.6%
- viability, T/C (second compound 1 µM, first compound 0.001 µM): 15.8%
- viability, T/C (second compound 1 µM, first compound 0.00316 µM): 14.3%
- viability, T/C (second compound 1 µM, first compound 0.01 µM): 14.8%
- viability, T/C [23]: 15.5%
- viability, T/C [24]: 10.1%

- pIC50 (second compound 0.0316 µM): > 7.50
- pIC50 (second compound 0.1 µM): > 7.50
- pIC50 (second compound 0.316 µM): > 7.50
- pIC50 (second compound 1 µM): > 7.50
- pIC50 (second compound 3.16 µM): > 7.50
- pIC50 (second compound 10 µM): > 7.50
Structure (SMILES): CC1(C)CCC(Nc2ncc(C(F)(F)F)c(-c3c[nH]c4c(P(C)(C)=O)c(C#N)ccc34)n2)CN1 (stereo unspecified) + CC(Nc1ncnc2nc[nH]c12)c1cc2cccc(Cl)c2c(=O)n1-c1ccccc1
- viability, T/C [5]: 37.5%
- viability, T/C [6]: 37.6%
- viability, T/C [7]: 36.1%
- viability, T/C [8]: 31.7%
- viability, T/C [9]: 14.5%
- viability, T/C [10]: 0.45%
- viability, T/C [11]: 36.2%
- viability, T/C [12]: 30.1%
- viability, T/C [13]: 32.6%
- viability, T/C [14]: 30.9%
- viability, T/C [15]: 13.9%
- viability, T/C [16]: 1.12%
- viability, T/C [17]: 33.4%
- viability, T/C [18]: 35.1%
- viability, T/C [19]: 31.1%
- viability, T/C [20]: 26.5%
- viability, T/C [21]: 13.9%
- viability, T/C [22]: 1.62%
- viability, T/C [23]: 33.6%
- viability, T/C [24]: 33.7%
- viability, T/C [25]: 28.8%
- viability, T/C [26]: 28.1%
- viability, T/C [27]: 11.7%
- viability, T/C [28]: 0.54%
- viability, T/C (second compound 3.16 µM, first compound 0.0316 µM): 29.7%
- viability, T/C (second compound 3.16 µM, first compound 0.1 µM): 27.3%
- viability, T/C (second compound 3.16 µM, first compound 0.316 µM): 28.8%
- viability, T/C (second compound 3.16 µM, first compound 1 µM): 24.7%
- viability, T/C (second compound 3.16 µM, first compound 3.16 µM): 15%
- viability, T/C (second compound 3.16 µM, first compound 10 µM): 1.34%
- viability, T/C (second compound 10 µM, first compound 0.0316 µM): 25.7%
- viability, T/C (second compound 10 µM, first compound 0.1 µM): 20.8%
- viability, T/C (second compound 10 µM, first compound 0.316 µM): 21.8%
- viability, T/C (second compound 10 µM, first compound 1 µM): 20.9%
- viability, T/C (second compound 10 µM, first compound 3.16 µM): 19.2%
- viability, T/C (second compound 10 µM, first compound 10 µM): 0.84%
